Patent US5567805A, “The cellular receptor for the CS3 peptide of human immunodeficiency virus” (priority 1994, dated 1996)

Tests used:
[1] = tested on: CD4; test: CD4 expression on RH9 cells stimulated with TPA; format: cell-based, human
Procedure: (§1) FIG. 11. Cultures of RH9 cells were incubated with 10 ng/ml PMA (TPA) or 10 μg/ml antibody to the CD3 cell surface antigen or in medium alone. Comparisons are presented for each day of analysis for expression of CD4 (left panel) or CS3 binding (right panel). 0.50% of RH9 cells bound CS3-HSA-FITC. Relative to control cultures treatment with anti-CD3 increased CS3 domain expressing cells by 71% at 48 hours and 56% at 72 hours, while TPA increased CS3-binding by 32% at 72 hours. CS3-HSA-FITC fluorescence intensity, reflecting the number of receptors per cell, increased while CD4 expression decreased in intensity and number of positive cells (8% at 24 hours).

[2] = tested on: CS3 binding domain; test: CS3 binding on RH9 cells stimulated with anti-CD3 or TPA; format: cell-based, human
Procedure: as §1

Q: What does the source list for `CCCCCCCCCCCCCC(=O)O[C@@H]1[C@@H](C)[C@@]2(O)[C@@H](C=C(CO)C[C@]3(O)C(=O)C(C)=C[C@@H]23)[C@@H]2C(C)(C)[C@]12OC(C)=O` [TPA, tetraphorbol 13-myristyl acetate]?
A: CD4 expression after treatment [1]: lost; CS3 binding / receptor density after stimulation [2]: CS3 binding was increased; increase in CS3 domain expressing cells / CS3-binding relative to control cultures ([2]; 72 hours): 32%
